Test results reported in ChEMBL document CHEMBL1154198, “Chemical genetics of Plasmodium falciparum” (Nature, 2010).

Assays:
Plasmodium falciparum [1] = test: ST_JUDE: Plasmodium falciparum 3D7 EC50 (uM) as measured by SYBR green dye; assay type: functional, organism-based
Plasmodium falciparum [2] = test: ST_JUDE: Plasmodium falciparum K1 EC50 (uM) as measured by SYBR green dye; assay type: functional, organism-based

Row | SMILES | EC50 (Plasmodium falciparum [1]) [µM] | EC50 (Plasmodium falciparum [2]) [µM]
1 | Oc1ccc(C(c2ccc(O)cc2)C(Cl)(Cl)Cl)cc1 | 3.95 | 3.6
2 | O=C(Nc1ccc(Br)cc1)Nc1cccc(Cl)c1 | > 15 | 5.49
3 | COc1ccc2nc(C)cc(Nc3ccc(Cl)c(Cl)c3)c2c1 | 1.14 | 4.84
4 | CCCCOc1ccc(N2C(N)=NC(N)=NC2(C)C)cc1 | 2.79 | > 15
5 | CCOc1ccc(Nc2nc(N)c3ccccc3n2)cc1 | 3.23 | > 15
6 | COCCCNc1nc2cc(OC)c(OC)cc2c2nc(-c3ccccc3)nn12 | 0.0855 | > 15
7 | Oc1ccc(Cl)cc1Nc1nc(C(F)(F)F)nc2ccccc12 | 1.2 | 0.638
8 | Nc1ccc(-c2nc3cc(Cc4ccc5[nH]c(-c6ccc(N)cc6)nc5c4)ccc3[nH]2)cc1 | 1.08 | 1.13
9 | O=C(Cc1ccccc1)N1CCOc2c(cc(-c3csc4ccccc34)cc2OCCc2ccccn2)C1 | 1.63 | 0.762
10 | COc1ccc2nc(C)cc(Nc3cccc(Cl)c3)c2c1 | 1.24 | 9.41
11 | O=C(Nc1ccccc1Cl)c1cc2ccccc2cc1O | > 15 | 0.547
12 | CC(=O)N(C1=C(N2CCCCC2)C(=O)c2ccccc2C1=O)c1ccc(F)cc1 | 2.72 | 3.89
13 | CCSCCN1C(=O)CSC1c1cnccc1-c1ccc(Br)cc1 (centres undefined) | 4.91 | > 15
14 | COC(=O)c1ccc(NC(=O)CN(Cc2ccc(Cl)cc2)S(=O)(=O)c2ccccc2)cc1 | 7.32 | 5.1
15 | CCN(CC)S(=O)(=O)c1ccc(C(=O)NNc2nc3c(OC)ccc(OC)c3s2)cc1 | > 15 | 3.93
16 | Cc1nc2c3cc(F)ccc3n(C)c2s1 | > 15 | > 15
17 | O=C1/C(=C/c2ccc(F)cc2)Oc2c1ccc(O)c2CN1CCCCC1 | 2.03 | 0.469
18 | CN(C)c1ccc(N2C(N)=NC(N)=NC2(C)C)cc1 | 0.0728 | > 15
19 | CCCCCCOC(=O)c1[nH]c2c(c1C)C(=O)CC(c1ccco1)C2 (centres undefined) | 2.52 | 2.03
20 | Cc1ccc2ccc(C(Nc3ccccn3)c3ccncc3)c(O)c2n1 (centres undefined) | 6.5 | > 15
21 | CCCO/C(O)=C1\C(C)=NC2=C(C(=O)CC(c3ccccc3)C2)C1c1cc(Cl)c(O)c(OC)c1 (centres undefined) | 3.35 | 2.88
22 | Cc1cc(O)nc(-n2nc(C)cc2NC(=O)c2cc(C(F)(F)F)cc(C(F)(F)F)c2)n1 | > 15 | > 15

Row | SMILES | EC50 (Plasmodium falciparum [1]) [µM] | EC50 (Plasmodium falciparum [2]) [µM]
23 | CCOc1cccc2sc(N(Cc3cccnc3)C(=O)C3CCCCC3)nc12 | 3.04 | 2.23
24 | COc1ccccc1NC(=O)CN1CCN(C(=O)c2ccco2)CC1 | 2.84 | 4.84
25 | CCN(CC)CCn1c(=N)n(CC(O)COc2ccccc2C)c2ccccc21 (centres undefined) | 4.06 | 4.48
26 | COC(=O)c1cn(NC(=O)c2cccc(F)c2)c(=O)c2ccccc12 | 6.66 | > 15
27 | Cc1ccc2ccc(C(Nc3ccccn3)c3cccc(Br)c3)c(O)c2n1 (centres undefined) | > 15 | 4.78
28 | O=C(Nc1ccc(F)c(F)c1)c1ccc(=O)n(Cc2cccc([N+](=O)[O-])c2)c1 | > 15 | > 15
29 | O=C(Nc1c2c(nn1-c1ccc([N+](=O)[O-])cc1)CSC2)c1ccc(C(=O)c2ccccc2)cc1 | > 15 | 4.08
30 | O=C(NCCc1ccncc1)Nc1ccc([N+](=O)[O-])cc1 | > 15 | > 15
31 | Cc1ccc(/C=C2\C(=O)NC(=O)N(c3ccc(Br)cc3)C2=O)cc1[N+](=O)[O-] | 4.47 | 5.16
32 | O=C(CC1N=C2c3ccccc3N=C(SCc3cccc(F)c3)N2C1=O)NCc1ccco1 (centres undefined) | 2.31 | 2.01
33 | CN1CCN(c2ccc(NC(=O)c3cccc(I)c3)cc2Cl)CC1 | 7.44 | > 15
34 | CCCCNC(=S)NCCc1c(C)[nH]c2ccccc12 | > 15 | > 15
35 | CCc1cc(Br)ccc1NC(=O)Nc1ccc([N+](=O)[O-])cc1 | > 15 | > 15
36 | C#CCOc1ccc(C2C(C#N)=C(N)Oc3c2ccc2ccccc32)cc1OC (centres undefined) | 0.414 | 4.08
37 | COCCN1C(=O)c2ccccc2C(C(=O)Nc2ccc(OC)c(Cl)c2)C1c1cccs1 (centres undefined) | 2.01 | 2.48
38 | Cc1cccc(NS(=O)(=O)c2cc3c4c(c2)CCN4C(=O)CC3)c1 | > 15 | > 15
39 | CC[N+](C)(CC)CCCOc1ccc2c(c1)C(=O)c1cc(OCCC[N+](C)(CC)CC)ccc1-2 | 0.655 | 0.413
40 | CCOC(=O)C1=C(c2ccccc2)N=c2s/c(=C\c3cccc(O)c3)c(=O)n2C1c1cccc(OC)c1OC (centres undefined) | 3.26 | 2.18
41 | COc1ccc(S(=O)(=O)/N=C2/C=C(Sc3nc[nH]n3)C(=O)c3ccccc32)cc1 | 1.94 | 2.34
42 | O=C1c2ccccc2C(=O)c2cc(S(=O)(=O)N(CCO)CCO)ccc21 | 5.89 | 3.21
43 | CCS(=O)(=O)c1ccccc1C(=O)Nc1nc(-c2ccccn2)cs1 | 6.53 | 5.14
44 | COc1ccc(C2C(C#N)=C(N)Oc3c2ccc2ccccc32)cc1OC (centres undefined) | 1.45 | 8.61

Row | SMILES | EC50 (Plasmodium falciparum [1]) [µM] | EC50 (Plasmodium falciparum [2]) [µM]
45 | COc1ccc(Nc2cc(C)nc(Nc3ccc(NS(=O)(=O)c4cccc(Cl)c4)cc3)n2)cc1 | 2.39 | > 15
46 | O=C(Nc1ccc(F)c(Cl)c1)Nc1ccc(Cl)c(Cl)c1 | 5.41 | 1.63
47 | COc1ccc(CCNC(=S)Nc2ccccc2SC)cc1OC | 5.2 | 4.3
48 | COCCn1c(SCC(=O)Nc2cc(C(F)(F)F)ccc2Cl)nc2c(c1=O)SC(C)C2 (centres undefined) | > 15 | 0.568
49 | CSc1cccc(NC(=O)Cn2c(C)c(C=O)c3ccccc32)c1 | 4.56 | 4.29
50 | CS(=O)(=O)Nc1ccc2c(c1)CCCN2C(=O)c1cccs1 | > 15 | 7.55
51 | Cc1cccc(NC2=C(N3CCCCC3)C(=O)c3ccccc3C2=O)c1 | 0.0527 | 0.181
52 | C=CCOc1cccc(C(Nc2cc(C)ccn2)c2ccc3cccnc3c2O)c1 (centres undefined) | 3.17 | 4.09
53 | CCCO/C(O)=C1\C(C)=NC2=C(C(=O)CC(c3ccccc3OC)C2)C1c1ccc([N+](=O)[O-])cc1 (centres undefined) | 0.759 | 1.15
54 | Cc1ccccc1OCC(O)Cn1c(=N)n(CCN2CCCCC2)c2ccccc21 (centres undefined) | 4.76 | 5.4
55 | O=S(=O)(/N=C(\Nc1ccc(Br)cc1)c1ccccc1)c1ccccc1 | > 15 | > 15
56 | C=CCNC(=S)N1CCc2cc(OC)c(OC)cc2C1c1ccccc1 (centres undefined) | 3.85 | 3.73
57 | CCOC(=O)N1CCC(NC(=S)Nc2ccc(C(C)(C)C)cc2)CC1 | 9.44 | 2.64
58 | Cc1cccc(CN2C(=O)/C(=C\c3ccc(C(=O)N4CCC(N5CCCCC5)CC4)cc3)Oc3ccccc32)c1 | 4.03 | > 15
59 | COc1cc2c(cc1OC)C(C(=O)Nc1ccc(C(C)C)cc1)C(c1cccs1)N(C)C2=O (centres undefined) | > 15 | 3.45
60 | CCOC(=O)c1ccc2nc(C)cc(Nc3ccc(OC)cc3)c2c1 | 2.86 | > 15
61 | CC1CN(C(=O)c2ccc(I)cc2)CC(C)O1 (centres undefined) | 2.73 | 1.52
62 | COc1ccc(C)cc1S(=O)(=O)Nc1ccc(Nc2nc(C)cc(N3CCCC3)n2)cc1 | 0.759 | > 15
63 | O=C(CSc1nccn1-c1ccc([N+](=O)[O-])cc1)N1CCc2ccccc21 | > 15 | > 15
64 | CCCCC(O)(c1ccc(Cl)cc1)C(CN1CCOCC1)c1ccc(Cl)cc1 (centres undefined) | 4.01 | 1.64
65 | Fc1ccc(Nc2nc(NCCN3CCOCC3)nc3c2cnn3-c2ccccc2)cc1 | > 15 | 6.75
66 | COc1ccc(Cl)cc1NC(=O)CSc1nc(-c2ccccc2Cl)ns1 | 1.43 | 2.66

Row | SMILES | EC50 (Plasmodium falciparum [1]) [µM] | EC50 (Plasmodium falciparum [2]) [µM]
67 | CC(C)CC(=O)NC(c1ccc(Cl)cc1Cl)c1ccc2cccnc2c1O (centres undefined) | > 15 | > 15
68 | CCC(C)NC(=O)N1CCC(n2nccc2NC(=O)CCCc2ccccc2)CC1 (centres undefined) | > 15 | > 15
69 | COc1ccc(NC(=O)c2c(-c3c(Cl)cccc3Cl)noc2C)c(OC)c1 | > 15 | 5.43
70 | O=C(c1cccc(Cl)c1)N(Cc1cccnc1)c1nc2c(F)cccc2s1 | > 15 | 6.68
71 | CCN(CC)c1cc(C)nc(Nc2ccc(NS(=O)(=O)c3cc(C)ccc3OC)cc2)n1 | 4.17 | > 15
72 | COC(=O)C1C(O)=C2C(=Nc3ccccc3NC2c2ccccc2OC(C)C)CC1C (centres undefined) | > 15 | > 15
73 | CCCCN(CC)CCNC(=O)c1cc2c(-c3ccccc3F)nn(C)c2s1 | 2.07 | > 15
74 | O=C1C2CC=C(Cl)CC2C(=O)N1CCCCO (centres undefined) | 3.32 | 1.47
75 | COC(=O)c1ccc(Nc2nc(NCc3ccco3)c3ccccc3n2)cc1 | 4.89 | 8.54
76 | COc1ccc(-c2nn(C)c3sc(C(=O)Nc4cccc(Cl)c4)cc23)cc1OC | > 15 | 6.94
77 | COc1cc(C(=O)NCC(C)Oc2cccc(CN(C)Cc3cscn3)c2)cc(OC)c1OC (centres undefined) | > 15 | > 15
78 | CCCCCC(O)(c1ccc(F)cc1)C(CN1CCOCC1)c1ccc(Cl)cc1 (centres undefined) | 1.83 | 0.935
79 | CCN(CC)c1cc(C)c2cc(NC(=O)c3cccc(F)c3)ccc2n1 | 1.99 | 8.08
80 | C=CCNc1c2c(nc3ccccc13)CCC2 | 3.24 | 1.15
81 | CC(=O)N(C1=C(N(C)C)C(=O)c2ccccc2C1=O)c1cccc(I)c1 | 0.0566 | 0.0862
82 | CCc1cc2c(=O)c(Oc3ccc(Cl)cc3)coc2cc1OC(C)=O | > 15 | > 15
83 | C=CC[n+]1c(C)n(N)c2ccccc21 | > 15 | > 15
84 | Cc1ccc(-c2nc3ccccc3o2)cc1NC(=O)C(Cl)(Cl)Cl | 4.07 | 1.7
85 | Cc1ccc(CN2CCN(Cc3ccc(OCCO)cc3)CC2CCO)o1 (centres undefined) | > 15 | > 15
86 | C#CCOc1ccc(C2C(C#N)=C(N)Oc3cc(O)ccc32)cc1OCC (centres undefined) | > 15 | 10.2
87 | CCCC(=O)NC(c1ccc(Cl)cc1Cl)c1ccc2cccnc2c1O (centres undefined) | 2.24 | 3.57
